Tests used:
Type in all cases: cell-based
E. coli UBMS 88-1 Tet B = assay: microbe, parasite or virus in culture; settings: E. coli UBMS 88-1 Tet B; 18 hours at 35° C.
[1] = system: E. coli MC 4100 Tet sens.; assay: MIC, agar dilution
E. coli PRP1 Tet A = assay: microbe, parasite or virus in culture; settings: E. coli PRP1 Tet A
E. coli UBMS 89-1 Tet M = assay: microbe, parasite or virus in culture; settings: E. coli UBMS 89-1 Tet M
[2] = system: E. coli UBMS 89-2 Tet sens.; assay: MIC, agar dilution; settings: E. coli UBMS 89-2 Tet sens.
E. coli BAJ9003 IMP MUT = assay: microbe, parasite or virus in culture; settings: E. coli BAJ9003 IMP MUT
E. coli J3272 Tet D = assay: microbe, parasite or virus in culture; settings: E. coli J3272 Tet D
S. mariescens FPOR 8733 = assay: MIC, agar dilution
[3] = system: Ps. acruginosa ATCC 27853; assay: MIC, agar dilution; settings: Ps. acruginosa ATCC 27853
S. aureus NEMC 8769 = assay: MIC, agar dilution; settings: S. aureus NEMC 8769
S. aureus UBMS 88-4 = assay: MIC, agar dilution; settings: S. aureus UBMS 88-4
[4] = system: S. aureus UBMS 88-5 Tet M; assay: microbe, parasite or virus in culture; settings: S. aureus UBMS 88-5 Tet M
[5] = system: S. aureus UBMS 88-7 Tet K; assay: microbe, parasite or virus in culture; settings: S. aureus UBMS 88-7 Tet K
[6] = system: S. aureus UBMS 90-1 Tet M; assay: microbe, parasite or virus in culture; settings: S. aureus UBMS 90-1 Tet M
S. aureus UBMS 90-3 = assay: MIC, agar dilution; settings: S. aureus UBMS 90-3
[7] = system: S. aureus UBMS 90-2 Tet M; assay: microbe, parasite or virus in culture; settings: S. aureus UBMS 90-2 Tet M
S. aureus IVES 2943 = assay: MIC, agar dilution; settings: S. aureus IVES 2943
S. aureus SMITH (MP) = assay: MIC, agar dilution; settings: S. aureus SMITH (MP)
S. aureus IVES 1 983 = assay: MIC, agar dilution; settings: S. aureus IVES 1 983
S. aureus ATCC 29213 = assay: MIC, agar dilution; settings: S. aureus ATCC 29213
[8] = system: tetracycline sensitive and resistant Gram-positive and Gram-negative bacteria; assay: In vitro antibacterial activity, summary in words of Table I
E. coli J3272 Tet C = assay: microbe, parasite or virus in culture; settings: E. coli J3272 Tet C
E. coli J2175 = assay: MIC, agar dilution; settings: E. coli J2175
E. coli UBMS 90-4 Tet M = assay: microbe, parasite or virus in culture; settings: E. coli UBMS 90-4 Tet M
E. coli UBMS 90-5 = assay: MIC, agar dilution
E. coli #311 (MP) = assay: MIC, agar dilution; settings: E. coli #311 (MP)
E. coli ATCC 25922 = assay: MIC, agar dilution; settings: E. coli ATCC 25922
S. aureus ROSE (MP) = assay: MIC, agar dilution; settings: S. aureus ROSE (MP)
[9] = system: S. hemolyticus AVHAH 88-3; assay: MIC, agar dilution; settings: S. hemolyticus AVHAH 88-3
Enterococcus 12201 = assay: MIC, agar dilution; settings: Enterococcus 12201
E. faecalis ATCC 29212 = assay: MIC, agar dilution; settings: E. faecalis ATCC 29212

Compound	MIC (E. coli UBMS 88-1 Tet B)	MIC [1]	MIC (E. coli PRP1 Tet A)	MIC (E. coli UBMS 89-1 Tet M)	MIC [2]	MIC (E. coli BAJ9003 IMP MUT)	MIC (E. coli J3272 Tet D)	MIC (S. mariescens FPOR 8733)	MIC [3]	MIC (S. aureus NEMC 8769)	MIC (S. aureus UBMS 88-4)	MIC [4]	MIC [5]	MIC [6]	MIC (S. aureus UBMS 90-3)	MIC [7]	MIC (S. aureus IVES 2943)	MIC (S. aureus SMITH (MP))	MIC (S. aureus IVES 1 983)	MIC (S. aureus ATCC 29213)	further results
CN(C)c1cc(NC(=O)CNCC2CC2)c(O)c2c1CC1CC3C(N(C)C)C(O)=C(C(N)=O)C(=O)C3(O)C(O)=C1C2=O.Cl.Cl (stereo not shown) [K]	0.5 µg/mL	0.12 µg/mL	4 µg/mL	0.5 µg/mL	0.5 µg/mL	0.12 µg/mL	0.25 µg/mL	8 µg/mL	16 µg/mL	1 µg/mL	0.5 µg/mL	1 µg/mL	4 µg/mL	1 µg/mL	0.5 µg/mL	0.5 µg/mL	8 µg/mL	0.5 µg/mL	8 µg/mL	1 µg/mL	activity against E. coli tetA, E. coli tetC and E. coli tetD [8]: good activity; in vitro activity against tetracycline resistant strains containing tetM and tetB resistance determinants ([8]; S. aureus UBMS 88-5, 90-1, 90-2, E. coli UBMS 89-1, 90-4, 88-1, TN10C tetB): excellent; activity against recently isolated bacteria from clinical sources compared with minocycline ([8]; clinical isolates): superior to that of minocycline; activity against susceptible strains compared with minocycline ([8]; susceptible strains): equallyas effective as minocycline
717S-(7alpha,10aalpha)]-N-[9-(Aminocarbonyl)4,7-bis(dimethylamino)-5,5a,6,6a,7,10,10a,12-octahydro-1,8,10a,11-tetrahydroxy-10,12-dioxo-2-naphthacenyl]-4-methyl-l-piperazineacetamide dihydrochloride	8 µg/mL	1 µg/mL	16 µg/mL	8 µg/mL	8 µg/mL	0.5 µg/mL	4 µg/mL	> 32 µg/mL	> 32 µg/mL	–	2 µg/mL	4 µg/mL	16 µg/mL	8 µg/mL	2 µg/mL	2 µg/mL	> 32 µg/mL	0.5 µg/mL	> 32 µg/mL	2 µg/mL	MIC (E. coli J3272 Tet C): 8 µg/mL; MIC (E. coli J2175): 8 µg/mL; MIC (E. coli UBMS 90-4 Tet M): 8 µg/mL; MIC (E. coli UBMS 90-5): 8 µg/mL; MIC (E. coli #311 (MP)): 8 µg/mL; MIC (E. coli ATCC 25922): 8 µg/mL; MIC (S. aureus ROSE (MP)): > 32 µg/mL; MIC [9]: 16 µg/mL; MIC (Enterococcus 12201): 2 µg/mL; MIC (E. faecalis ATCC 29212): 1 µg/mL
[4S-(4alpha,12aalpha)]-4,7-bis(dimethylamino)-1,4,4a,5,5a,6,11,12a-octahydro-3,10, 12,12a-tetrahydroxy-1,11-dioxo-9-[[[(2pyridinylmethyl)amino]acetyl]amino-2-naphthacenecarboxamide dihydrochloride	16 µg/mL	2 µg/mL	32 µg/mL	8 µg/mL	16 µg/mL	1 µg/mL	8 µg/mL	> 32 µg/mL	> 32 µg/mL	8 µg/mL	8 µg/mL	8 µg/mL	32 µg/mL	8 µg/mL	4 µg/mL	8 µg/mL	> 32 µg/mL	4 µg/mL	> 32 µg/mL	8 µg/mL	MIC (E. coli J3272 Tet C): 16 µg/mL; MIC (E. coli J2175): 16 µg/mL; MIC (E. coli UBMS 90-4 Tet M): 8 µg/mL; MIC (E. coli UBMS 90-5): 16 µg/mL; MIC (E. coli #311 (MP)): 8 µg/mL; MIC (E. coli ATCC 25922): 8 µg/mL; MIC [9]: 16 µg/mL; MIC (Enterococcus 12201): 4 µg/mL; MIC (E. faecalis ATCC 29212): 2 µg/mL

From US5328902A, “7-(substituted)-9-[(substituted glycyl)amido]-6-demethyl-6-deoxytetracyclines” (American Cyanamid Co., priority 1992, dated 1994)
